Like-named read-outs stand apart in the source and are kept apart here.
Test: Pharmacokinetic analysis of RA in an SH-SY5Y xenograft model (retinoid concentrations in plasma, liver, tumour by LC/MS)
Type: in vivo, CD-1 nude mice
Details: for % Total retinoids, tumour, 0.5 h / % Total retinoids, tumour, 2 h / % Total retinoids, tumour, 6 h / % Total retinoids, liver, 0.5 h / % Total retinoids, liver, 2 h / % Total retinoids, liver, 6 h / % Total retinoids, plasma, 0.5 h / % Total retinoids, plasma, 2 h / % Total retinoids, plasma, 6 h / concentration at 0.5 h / concentration at 2 h / concentration at 6 h: label = retinoid measured; for concentration at 0.5 h / concentration at 2 h / concentration at 6 h / Tmax: female, CD-1 nu/nu (athymic nude), mouse; for concentration at 0.5 h / concentration at 2 h / concentration at 6 h: po; for Tmax: 100 mg kg^−1 oral, sampled at 0.5, 2, 6 h, read-out: Time of peak plasma levels
Experimental: All in vivo experiments were approved by the relevant institutional animal welfare committees, and performed according to national law. Female athymic nude mice (CD-1 nu/nu, Charles River) used for antitumour studies were maintained and handled in isolators, under specific pathogen-free conditions, at 24°C with a 12 h light, 12 h dark cycle. Tumours were generated by implantation of SH-SY5Y cells subcutaneously (s.c.) into one flank of CD-1 nude mice (1 × 10^7 cells per animal).
Treatments began when the tumours were between 7 and 10 mm in length and breadth. Retinoids and R116010 were initially dissolved in DMSO before 10- or 20-fold dilutions in PBS, respectively. For pharmacokinetic studies, the animals were dosed with ATRA or 13cisRA (each 100 mg kg^−1) orally for 0.5, 2 and 6 h. For metabolism studies, animals were treated with R116010 orally at doses of 1.25 or 2.5 mg kg^−1 either immediately before the retinoid being studied, or up to three times (over 1–2 days) before dosing with the retinoid. At termination of experiments, animals were bled under terminal anaesthesia then killed by cervical dislocation. Plasma was immediately removed from the blood by centrifugation at 1000 g for 5 min and snap-frozen in liquid nitrogen in amber Eppendorfs. Tumour and liver samples were removed and snap-frozen, wrapped in foil, in liquid nitrogen.
Cell pellets obtained from retinoid incubations were re-suspended in 2 ml cell culture medium and disrupted by passing the samples several times through a syringe and hypodermic needle (25G × 1 inches, 0.5 mm × 25 mm; Terumo, Somerset, NJ, USA). Tumour and liver tissues were re-suspended in PBS and homogenised (T25 homogeniser, IKA Laboratories, Staufen, Germany). Retinoids were extracted as described previously ([Veal et al, 2002]; [Armstrong et al, 2005b]). Samples were reconstituted in 200 μl mobile phase A (n-hexane:dichloromethane:propan-2-ol, 400 : 1 : 0.27) and analysed by normal-phase HPLC as described previously ([Veal et al, 2002]). For LC/MS analysis, samples were reconstituted in 200 μl mobile phase A (50% acetonitrile, 50% (0.2%) acetic acid, v v^−1).
Resolution of retinoids was performed with a Luna C18(2) column (3 μm, 50 mm × 2 mm) using a Perkin Elmer LC (Beaconsfield, UK) system, consisting of a vacuum degasser, two series 200 pumps, a thermostatically controlled series 200 autosampler and a Waters 2487 UV absorbance detector. Retinoic isomers and metabolites were separated by gradient reversed-phase chromatography. An injection volume of 20 μl with a flow rate of 0.2 ml min^−1 was used with mobile phase A (50% acetonitrile, 50% (0.2%) acetic acid, v v^−1) and mobile phase B (acetonitrile, 0.1% acetic acid, v v^−1). Linear gradients were employed between the specified times as follows: 0, 100% A; 5 min, 100% A; 15 min, 100% B; 20 min, 100% B; 23 min, 100% A; 35 min, 100% A. An Applied Biosystems (Warrington, UK) API-2000 LC/MS/MS triple Q (quadrupole) mass spectrometer with electrospray ionisation source, controlled by Analyst software, was operated in single quadrupole negative mode for the detection of compounds.

[1] = after 13cisRA 100 mg kg^−1 oral, SH-SY5Y tumour
[2] = after 13cisRA 100 mg kg^−1 oral, liver
[3] = after 13cisRA 100 mg kg^−1 oral, plasma
[4] = after ATRA 100 mg kg^−1 oral, SH-SY5Y tumour
[5] = after ATRA 100 mg kg^−1 oral, liver
[6] = after ATRA 100 mg kg^−1 oral, plasma
[7] = liver, 100 mg kg^−1, after 13cisRA 100 mg kg^−1 oral, liver, read-out: Liver concentration, 0.5 h
[8] = liver, 100 mg kg^−1, after 13cisRA 100 mg kg^−1 oral, liver, read-out: Liver concentration, 2 h
[9] = liver, 100 mg kg^−1, after 13cisRA 100 mg kg^−1 oral, liver, read-out: Liver concentration, 6 h
[10] = liver, 100 mg kg^−1, after ATRA 100 mg kg^−1 oral, liver, read-out: Liver concentration, 0.5 h
[11] = liver, 100 mg kg^−1, after ATRA 100 mg kg^−1 oral, liver, read-out: Liver concentration, 2 h
[12] = liver, 100 mg kg^−1, after ATRA 100 mg kg^−1 oral, liver, read-out: Liver concentration, 6 h
[13] = plasma, 100 mg kg^−1, after 13cisRA 100 mg kg^−1 oral, plasma, read-out: Plasma concentration, 0.5 h
[14] = plasma, 100 mg kg^−1, after 13cisRA 100 mg kg^−1 oral, plasma, read-out: Plasma concentration, 2 h
[15] = plasma, 100 mg kg^−1, after 13cisRA 100 mg kg^−1 oral, plasma, read-out: Plasma concentration, 6 h
[16] = plasma, 100 mg kg^−1, after ATRA 100 mg kg^−1 oral, plasma, read-out: Plasma concentration, 0.5 h
[17] = plasma, 100 mg kg^−1, after ATRA 100 mg kg^−1 oral, plasma, read-out: Plasma concentration, 2 h
[18] = plasma, 100 mg kg^−1, after ATRA 100 mg kg^−1 oral, plasma, read-out: Plasma concentration, 6 h
[19] = tumour (SH-SY5Y xenograft), 100 mg kg^−1, after 13cisRA 100 mg kg^−1 oral, SH-SY5Y tumour, read-out: Tumour concentration, 0.5 h
[20] = tumour (SH-SY5Y xenograft), 100 mg kg^−1, after 13cisRA 100 mg kg^−1 oral, SH-SY5Y tumour, read-out: Tumour concentration, 2 h
[21] = tumour (SH-SY5Y xenograft), 100 mg kg^−1, after 13cisRA 100 mg kg^−1 oral, SH-SY5Y tumour, read-out: Tumour concentration, 6 h
[22] = tumour (SH-SY5Y xenograft), 100 mg kg^−1, after ATRA 100 mg kg^−1 oral, SH-SY5Y tumour, read-out: Tumour concentration, 0.5 h
[23] = tumour (SH-SY5Y xenograft), 100 mg kg^−1, after ATRA 100 mg kg^−1 oral, SH-SY5Y tumour, read-out: Tumour concentration, 2 h
[24] = tumour (SH-SY5Y xenograft), 100 mg kg^−1, after ATRA 100 mg kg^−1 oral, SH-SY5Y tumour, read-out: Tumour concentration, 6 h

Row | % Total retinoids, tumour, 0.5 h [1] [%] | % Total retinoids, tumour, 2 h [1] [%] | % Total retinoids, tumour, 6 h [1] [%] | % Total retinoids, liver, 0.5 h [2] [%] | % Total retinoids, liver, 2 h [2] [%] | % Total retinoids, liver, 6 h [2] [%] | % Total retinoids, plasma, 0.5 h [3] [%] | % Total retinoids, plasma, 2 h [3] [%] | % Total retinoids, plasma, 6 h [3] [%] | % Total retinoids, tumour, 0.5 h [4] [%] | % Total retinoids, tumour, 2 h [4] [%] | % Total retinoids, tumour, 6 h [4] [%] | % Total retinoids, liver, 0.5 h [5] [%] | % Total retinoids, liver, 2 h [5] [%] | % Total retinoids, liver, 6 h [5] [%] | % Total retinoids, plasma, 0.5 h [6] [%] | % Total retinoids, plasma, 2 h [6] [%] | % Total retinoids, plasma, 6 h [6] [%] | concentration at 0.5 h [7] [ng/g] | concentration at 2 h [8] [ng/g] | Compound | further results
1 | 7 | 14 | 16 | 2 | 1 | <1 | 5 | 3 | 1 | 90 | 95 | 80 | 77 | 81 | 46 | 91 | 88 | 70 | 120 ± 80 | 50 ± 50 | CC1=C(/C=C/C(C)=C/C=C/C(C)=C/C(=O)O)C(C)(C)CCC1 [ATRA, all-trans-retinoic acid] | Plasma % of total retinoids at all time points (after 13cisRA 100 mg kg^−1, plasma, 0.5, 2 and 6 h): < 10%; Intratumoral % of total retinoids at all time points (after ATRA 100 mg kg^−1, tumour, 0.5, 2 and 6 h): ≥ 80%; concentration at 6 h [9]: 20 ± 20 ng/g; concentration at 0.5 h [10]: 3070 ± 1950 ng/g; concentration at 2 h [11]: 6920 ± 1130 ng/g; concentration at 6 h [12]: 2400 ± 360 ng/g; concentration at 0.5 h [13]: 0.69 ± 0.49 µM; concentration at 2 h [14]: 0.57 ± 0.57 µM; concentration at 6 h [15]: 0.08 ± 0.08 µM; concentration at 0.5 h [16]: 13 ± 10.4 µM; concentration at 2 h [17]: 24.4 ± 1.94 µM; concentration at 6 h [18]: 12.8 ± 4.61 µM; Tmax (plasma): 2 h; concentration at 0.5 h [19]: 150 ± 90 ng/g; concentration at 2 h [20]: 370 ± 160 ng/g; concentration at 6 h [21]: 90 ± 20 ng/g; concentration at 0.5 h [22]: 2590 ± 2280 ng/g; concentration at 2 h [23]: 9410 ± 2230 ng/g; concentration at 6 h [24]: 3780 ± 590 ng/g
2 | 90 | 81 | 49 | 75 | 58 | 18 | 93 | 93 | 78 | 2 | 3 | 3 | 11 | 5 | 5 | 5 | 6 | 8 | 3770 ± 1050 | 2330 ± 110 | CC1=C(/C=C/C(C)=C/C=C/C(C)=C\C(=O)O)C(C)(C)CCC1 [13cisRA, 13-cis-retinoic acid] | Plasma % of total retinoids at all time points (after ATRA 100 mg kg^−1, plasma, 0.5, 2 and 6 h): < 10%; concentration at 6 h [9]: 980 ± 120 ng/g; concentration at 0.5 h [10]: 420 ± 300 ng/g; concentration at 2 h [11]: 400 ± 80 ng/g; concentration at 6 h [12]: 250 ± 60 ng/g; concentration at 0.5 h [13]: 14.2 ± 4.71 µM; concentration at 2 h [14]: 19.1 ± 3.26 µM; concentration at 6 h [15]: 4.69 ± 0.52 µM; concentration at 0.5 h [16]: 0.67 ± 0.55 µM; concentration at 2 h [17]: 1.55 ± 0.33 µM; concentration at 6 h [18]: 1.53 ± 0.66 µM; Tmax (plasma): 2 h; concentration at 0.5 h [19]: 2000 ± 670 ng/g; concentration at 2 h [20]: 2120 ± 570 ng/g; concentration at 6 h [21]: 280 ± 40 ng/g; concentration at 0.5 h [22]: 70 ± 70 ng/g; concentration at 2 h [23]: 280 ± 70 ng/g; concentration at 6 h [24]: 150 ± 30 ng/g

— publication PMC2359919, “Molecular targeting of retinoic acid metabolism in neuroblastoma: the role of the CYP26 inhibitor R116010 in vitro and in vivo” (British Journal of Cancer, 2007)
